In PubChem BioAssay AID342 (DTP/NCI, 2004):
Values joined by “and” are separate entries in the source; they are usually repeats but may differ in a detail not shown here. Identical values can stand only once.

Test system: Swiss mice, Sarcoma 180 sc, mean tumor weight T/C
Test: NCI In Vivo Anticancer Drug Screen. Data for tumor model Sarcoma 180 (subcutaneous) in Swiss mice
Settings: endpoint: mean tumor weight, higher = larger tumour
In short: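 Antitumor activity is assessed in mice with transplantable tumors. Treated (T) and vehicle control (C) groups are compared on survival or tumor size.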

[1] = dose: 150.0 mg/kg/injection, schedule: Q01DX007 (ip), vehicle: carboxymethylcellulose (CMC)
[2] = dose: 31.0 mg/kg/injection, schedule: Q01DX007 (ip), vehicle: carboxymethylcellulose (CMC)
[3] = dose: 62.0 mg/kg/injection, schedule: Q01DX007 (ip), vehicle: carboxymethylcellulose (CMC)

Q: For `CC1C/C=C2\CSC(NC(=O)/C3=C\N(C/C=C/C=C/C(O)CC(O)CC(=O)N3)C2=O)C(=O)O1` (stereo not given), which T/C (dose: 18.75 mg/kg/injection, schedule: Q01DX007 (ip), vehicle: carboxymethylcellulose (CMC)) is on record?
A: 111 % of control

Q: What about the T/C (dose: 37.5 mg/kg/injection, schedule: Q01DX007 (ip), vehicle: carboxymethylcellulose (CMC)) of the same molecule?
A: 112 % of control

Q: What about the T/C [1] of the same molecule?
A: 114 % of control

Q: And the T/C (dose: 187.0 mg/kg/injection, schedule: Q01DX007 (ip), vehicle: carboxymethylcellulose (CMC))?
A: 68 % of control

Q: And the T/C (dose: 250.0 mg/kg/injection, schedule: Q01DX007 (ip), vehicle: carboxymethylcellulose (CMC))?
A: 119 % of control

Q: And the T/C (dose: 375.0 mg/kg/injection, schedule: Q01DX007 (ip), vehicle: carboxymethylcellulose (CMC))?
A: 91 % of control

Q: What about the T/C (dose: 500.0 mg/kg/injection, schedule: Q01DX007 (ip), vehicle: carboxymethylcellulose (CMC)) of the same molecule?
A: 73 % of control

Q: How did the T/C (dose: 6.2 mg/kg/injection, schedule: Q01DX007 (ip), vehicle: carboxymethylcellulose (CMC)) turn out when `COc1ccc2[nH]c3c(C)c4ccncc4c(C)c3c2c1` was run?
A: 81 % of control

Q: What about the T/C (dose: 12.5 mg/kg/injection, schedule: Q01DX007 (ip), vehicle: carboxymethylcellulose (CMC)) of the same molecule?
A: 77 % of control

Q: What about the T/C (dose: 25.0 mg/kg/injection, schedule: Q01DX007 (ip), vehicle: carboxymethylcellulose (CMC)) of the same molecule?
A: 33 % of control

Q: And the T/C (dose: 27.0 mg/kg/injection, schedule: Q01DX007 (ip), vehicle: saline)?
A: 72 % of control

Q: And the T/C (dose: 40.0 mg/kg/injection, schedule: Q01DX007 (ip), vehicle: saline)?
A: 88 % of control

Q: What about the T/C (dose: 50.0 mg/kg/injection, schedule: Q01DX007 (ip), vehicle: carboxymethylcellulose (CMC)) of the same molecule?
A: 27 % of control

Q: What about the T/C (dose: 50.0 mg/kg/injection, schedule: Q01DX007 (ip), vehicle: steriod suspending solution) of the same molecule?
A: 97 % of control

Q: And the T/C (dose: 60.0 mg/kg/injection, schedule: Q01DX007 (ip), vehicle: saline)?
A: 50 % of control

Q: What about the T/C (dose: 75.0 mg/kg/injection, schedule: Q01DX007 (ip), vehicle: carboxymethylcellulose (CMC)) of the same molecule?
A: 25 % of control

Q: What about the T/C (dose: 75.0 mg/kg/injection, schedule: Q01DX007 (ip), vehicle: steriod suspending solution) of the same molecule?
A: 46 % of control

Q: And the T/C (dose: 90.0 mg/kg/injection, schedule: Q01DX007 (ip), vehicle: saline)?
A: 24 % of control

Q: And the T/C [1]?
A: 19 % of control

Q: What about the T/C (dose: 150.0 mg/kg/injection, schedule: Q01DX007 (ip), vehicle: steriod suspending solution) of the same molecule?
A: 31 % of control

Q: How did the T/C (dose: 16.0 mg/kg/injection, schedule: Q01DX007 (ip), vehicle: carboxymethylcellulose (CMC)) turn out when `CCCCN(C)N=Nc1n[nH]nc1C(N)=O` was run?
A: 93 % of control

Q: And the T/C [2]?
A: 85 % of control

Q: And the T/C [3]?
A: 38 % of control

Q: What does the source list for `CCCCN(C)/N=N/c1nc[nH]c1C(N)=O`?
A: T/C [2]: 44 % of control; T/C [3]: 31 % of control; T/C (dose: 125.0 mg/kg/injection, schedule: Q01DX007 (ip), vehicle: carboxymethylcellulose (CMC)): 14 % of control

Q: With `O=[n+]1c2c(n([O-])c3ccccc31)-c1cccc3cccc-2c13` as the molecule, how does the T/C (dose: 41.0 mg/kg/injection, schedule: Q01DX007 (ip), vehicle: carboxymethylcellulose (CMC)) read?
A: 69 % of control

Q: What about the T/C (dose: 210.0 mg/kg/injection, schedule: Q01DX007 (ip), vehicle: carboxymethylcellulose (CMC)) of the same molecule?
A: 10 % of control

Q: What about the T/C (dose: 315.0 mg/kg/injection, schedule: Q01DX007 (ip), vehicle: carboxymethylcellulose (CMC)) of the same molecule?
A: 25 % of control

Q: Which T/C (dose: 16.5 mg/kg/injection, schedule: Q#A X014 (ip), vehicle: methylcellulose (MC)) does the source give for `CS(=O)(=O)OCCCCCOS(C)(=O)=O` here?
A: 54 % of control and 65 % of control

Q: What about the T/C (dose: 37.5 mg/kg/injection, schedule: Q#A X014 (ip), vehicle: methylcellulose (MC)) of the same molecule?
A: 54 % of control

Q: And the T/C (dose: 56.5 mg/kg/injection, schedule: Q#A X014 (ip), vehicle: methylcellulose (MC))?
A: 9 % of control

Q: For `CCOC(N)=O`, which T/C (dose: 62.5 mg/kg/injection, schedule: Q#A X014 (ip), vehicle: carboxymethylcellulose (CMC)) is on record?
A: 103 % of control

Q: What about the T/C (dose: 85.38 mg/kg/injection, schedule: Q01DX007 (ip), vehicle: carboxymethylcellulose (CMC)) of the same molecule?
A: 56 % of control

Q: And the T/C (dose: 112.5 mg/kg/injection, schedule: Q01DX007 (ip), vehicle: carboxymethylcellulose (CMC))?
A: 53 % of control

Q: What about the T/C (dose: 125.0 mg/kg/injection, schedule: Q#A X014 (ip), vehicle: carboxymethylcellulose (CMC)) of the same molecule?
A: 85 % of control

Q: And the T/C (dose: 170.75 mg/kg/injection, schedule: Q01DX007 (ip), vehicle: carboxymethylcellulose (CMC))?
A: 64 % of control

Q: And the T/C (dose: 225.0 mg/kg/injection, schedule: Q01DX007 (ip), vehicle: carboxymethylcellulose (CMC))?
A: 42 % of control

Q: And the T/C (dose: 225.0 mg/kg/injection, schedule: Q#A X014 (ip), vehicle: carboxymethylcellulose (CMC))?
A: 113 % of control

Q: What about the T/C (dose: 250.0 mg/kg/injection, schedule: Q#A X014 (ip), vehicle: carboxymethylcellulose (CMC)) of the same molecule?
A: 77 % of control

Q: And the T/C (dose: 273.2 mg/kg/injection, schedule: Q01DX007 (ip), vehicle: carboxymethylcellulose (CMC))?
A: 55 % of control

Q: And the T/C (dose: 300.0 mg/kg/injection, schedule: Q#A X014 (ip), vehicle: carboxymethylcellulose (CMC))?
A: 73 % of control

Q: What about the T/C (dose: 316.0 mg/kg/injection, schedule: Q01DX007 (ip), vehicle: carboxymethylcellulose (CMC)) of the same molecule?
A: 67 % of control

Q: What about the T/C (dose: 341.5 mg/kg/injection, schedule: Q01DX007 (ip), vehicle: carboxymethylcellulose (CMC)) of the same molecule?
A: 37 % of control and 46 % of control

Q: And the T/C (dose: 395.0 mg/kg/injection, schedule: Q01DX007 (ip), vehicle: carboxymethylcellulose (CMC))?
A: 54 % of control

Q: And the T/C (dose: 450.0 mg/kg/injection, schedule: Q01DX007 (ip), vehicle: carboxymethylcellulose (CMC))?
A: 53 % of control

Q: And the T/C (dose: 455.33 mg/kg/injection, schedule: Q01DX007 (ip), vehicle: carboxymethylcellulose (CMC))?
A: 62 % of control

Q: And the T/C (dose: 500.0 mg/kg/injection, schedule: Q#A X014 (ip), vehicle: carboxymethylcellulose (CMC))?
A: 24 % of control

Q: And the T/C (dose: 526.6 mg/kg/injection, schedule: Q01DX007 (ip), vehicle: carboxymethylcellulose (CMC))?
A: 40 % of control

Q: What about the T/C (dose: 683.0 mg/kg/injection, schedule: Q01DX007 (ip), vehicle: carboxymethylcellulose (CMC)) of the same molecule?
A: 21 % of control and 44 % of control

Q: What about the T/C (dose: 900.0 mg/kg/injection, schedule: Q01DX007 (ip), vehicle: carboxymethylcellulose (CMC)) of the same molecule?
A: 23 % of control

Q: With `CC(=O)[C@@]1(O)CC[C@H]2[C@@H]3CCC4=CC(=O)CC[C@]4(C)[C@@]3(F)[C@@H](O)C[C@@]21C` as the molecule, how does the T/C (dose: 12.0 mg/kg/injection, schedule: Q01DX007 (sc), vehicle: steriod suspending solution) read?
A: 67 % of control

Q: And the T/C (dose: 25.0 mg/kg/injection, schedule: Q01DX007 (sc), vehicle: steriod suspending solution)?
A: 69 % of control

Q: And the T/C (dose: 55.0 mg/kg/injection, schedule: Q01DX007 (sc), vehicle: steriod suspending solution)?
A: 40 % of control

Q: And the T/C (dose: 111.0 mg/kg/injection, schedule: Q01DX007 (sc), vehicle: steriod suspending solution)?
A: 40 % of control and 42 % of control

Q: And the T/C (dose: 166.0 mg/kg/injection, schedule: Q01DX007 (sc), vehicle: steriod suspending solution)?
A: 61 % of control

Q: What about the T/C (dose: 250.0 mg/kg/injection, schedule: Q01DX007 (sc), vehicle: steriod suspending solution) of the same molecule?
A: 58 % of control

Q: And the T/C (dose: 375.0 mg/kg/injection, schedule: Q01DX007 (sc), vehicle: steriod suspending solution)?
A: 44 % of control

Q: Which results are given for `C=C(C)C(=O)OCC1CO1` (stereo not given)?
A: T/C (dose: 250.0 mg/kg/injection, schedule: Q01DX007 (ip), vehicle: other): 97 % of control; T/C (dose: 375.0 mg/kg/injection, schedule: Q01DX007 (ip), vehicle: other): 74 % of control

Q: With `CN(Cc1cnc2nc(N)nc(N)c2n1)c1ccc(C(=O)N[C@@H](CCC(=O)O)C(=O)O)cc1` as the molecule, how does the T/C (dose: 0.12 mg/kg/injection, schedule: Q01DX007 (ip), vehicle: water) read?
A: 101 % of control

Q: And the T/C (dose: 0.12 mg/kg/injection, schedule: Q#A X014 (ip), vehicle: carboxymethylcellulose (CMC))?
A: 123 % of control

Q: What about the T/C (dose: 0.25 mg/kg/injection, schedule: Q01DX007 (ip), vehicle: water) of the same molecule?
A: 57 % of control

Q: And the T/C (dose: 0.25 mg/kg/injection, schedule: Q#A X014 (ip), vehicle: carboxymethylcellulose (CMC))?
A: 121 % of control

Q: And the T/C (dose: 0.5 mg/kg/injection, schedule: Q01DX007 (ip), vehicle: carboxymethylcellulose (CMC))?
A: 95 % of control and 110 % of control

Q: What about the T/C (dose: 0.5 mg/kg/injection, schedule: Q#A X014 (ip), vehicle: carboxymethylcellulose (CMC)) of the same molecule?
A: 73 % of control

Q: And the T/C (dose: 0.76 mg/kg/injection, schedule: Q01DX007 (ip), vehicle: carboxymethylcellulose (CMC))?
A: 119 % of control

Q: And the T/C (dose: 1.0 mg/kg/injection, schedule: Q01DX007 (ip), vehicle: carboxymethylcellulose (CMC))?
A: 107 % of control

Q: And the T/C (dose: 1.26 mg/kg/injection, schedule: Q01DX007 (ip), vehicle: carboxymethylcellulose (CMC))?
A: 68 % of control

Q: What about the T/C (dose: 1.5 mg/kg/injection, schedule: Q01DX007 (ip), vehicle: carboxymethylcellulose (CMC)) of the same molecule?
A: 78 % of control and 86 % of control

Q: And the T/C (dose: 1.9 mg/kg/injection, schedule: Q01DX007 (ip), vehicle: carboxymethylcellulose (CMC))?
A: 68 % of control

Q: And the T/C (dose: 237.0 micrograms/kg/injection, schedule: Q01DX007 (ip), vehicle: carboxymethylcellulose (CMC))?
A: 105 % of control

Q: What about the T/C (dose: 475.0 micrograms/kg/injection, schedule: Q01DX007 (ip), vehicle: carboxymethylcellulose (CMC)) of the same molecule?
A: 104 % of control

Q: What about the T/C (dose: 950.0 micrograms/kg/injection, schedule: Q01DX007 (ip), vehicle: carboxymethylcellulose (CMC)) of the same molecule?
A: 83 % of control

Q: And the T/C (dose: 1900.0 micrograms/kg/injection, schedule: Q01DX007 (ip), vehicle: carboxymethylcellulose (CMC))?
A: 32 % of control
